Data reported in article PMC4335020, “Single Oral Dose Pharmacokinetics of Decursin and Decursinol Angelate in Healthy Adult Men and Women” (PLoS ONE, 2015).
Like-named read-outs stand apart in the source and are kept apart here.

Assay: Single oral dose human plasma pharmacokinetics of D, DA and DOH after Cogni.Q
Format: in vivo
Conditions: human, plasma
Source text: Ten healthy male and 10 female subjects were recruited by public announcement in Amarillo, TX, from January 2013 to April 2013 (see Fig. 1 CONSORT diagram). The sample size for each gender was chosen without power calculation due to the lack of prior knowledge of PK parameter variance in humans. After receiving informed consent verbally and in writing, the health status of each candidate was confirmed by health questionnaire, plasma biochemistry (hepatic and renal functions), complete blood cell count (CBC), and a physical examination by a participating academic physician. Subjects with diabetes, or pregnant, perinatal and breastfeeding women were excluded. For the 48 hours preceding study visit until the final blood draw, all subjects were instructed to avoid taking any prescription or nonprescription drugs, vitamins, and herbal/dietary supplements. Each subject was compensated for participating in the study per TTUHSC IRB approved rate.
Eligible subjects arrived at our clinical facility at 0700 (7:00 am) on the test day after a fast beginning at 2200 (10:00 pm) the previous night. After a brief review of vital signs, the nurse placed an intravenous (IV) line with saline drip in one arm of each subject. A baseline pre-dose (hour 0) blood sample was drawn through the IV line; after that subjects swallowed four Cogni.Q vegicaps with 240 mL of water at hour 0 under direct supervision. Subjects stayed at the clinical facility in their room for the next 12 hours, returning at 24 and 48 hours. Blood was drawn at baseline (hour 0) and at 0.5, 1, 2, 3, 4, 6, 8, 12, 24 and 48 hours after dosing into Vacutainer Blood Collection Tube (Becton-Dickinson, Franklin Lakes, NJ. Product Number: 367874, Sodium heparin was used as anti-coagulant). Water was allowed as desired except for within the first hour after Cogni.Q consumption. All subjects received standardized meals at post-dose hours 4.5 and 9.5 but no food was allowed for at least the first 4 hours post-dose.
Plasma was prepared by centrifuging the heparinized blood at 1000 g for 15 minutes at room temperature. Urine samples (40mL) were collected within time spans of 0–4, 4–8, 8–12 and 12–24 hours (total volume of urine was recorded). All plasma and urine samples were put on dry ice immediately and then stored at -80°C freezer until analysis.
Plasma samples were extracted with a validated solid supported liquid extraction (SLE) method facilitated with a positive pressure manifold (Biotage, Charlotte, NC). Briefly, 100 μL of plasma sample was spiked with 5 μL of 10 ng/μL prednisolone (IS), diluted with 200 μL of LC-MS grade water, mixed and loaded onto ISOLUTE SLE+ 400 μL Array Well cartridges (Biotage, Charlotte, NC). A pulse of minimum positive pressure was applied to facilitate the samples absorption into the cartridges. After the samples were allowed to absorb for 5 min, the compounds were eluted with 2×500 μL tert-butyl methyl ether. The eluent was dried in a Speedvac and the resulting residue was reconstituted in 50 μL of methanol for UHPLC-MS/MS analysis.
Eight-point calibration curves were constructed for D, DA and DOH, at concentrations of 0.1, 0.5, 1, 5, 10, 20, 50 and 100 μg/L for D and DA, and at concentrations of 1, 5, 10, 50, 100, 200, 500 and 1000 μg/L for DOH, respectively. The linear range was 0.1–100 μg/L (0.3–300 nmol/L), 0.1–100 μg/L (0.3–300 nmol/L) and 1–1000 μg/L (4–4000 nmol/L) for D, DA and DOH, respectively. The inter- and intra-assay CV were lower than 6.5% and the accuracy was between 90–105%. Calibration curve was run for each batch of samples analyzed. The mean calibration curve correlation coefficient (r) for D, DA and DOH was 0.999, 0.999 and 0.998, respectively (data from 7–10 calibration curves). In addition, 70% of the plasma samples were extracted and analyzed twice, the data from two replicate analyses were nearly identical and combined for final data analyses and presentation. […]

Which results are given for `CC1(C)Oc2cc3oc(=O)ccc3cc2C[C@@H]1O` [DOH, decursinol]?
half-life (oral, 4 Cogni.Q vegicaps, subject S9 (158 lb), read-out: Terminal t1/2, h (converted)): 7.7 h; Tmax (oral, 4 Cogni.Q vegicaps, subject S9 (158 lb), read-out: Tmax): 3 h; AUC(0-t) (oral, 4 Cogni.Q vegicaps, subject S10 (185 lb), read-out: AUC0-48h): 17400 nmol·h/L; Cmax (oral, 4 Cogni.Q vegicaps, subject S10 (185 lb), read-out: Cmax): 1610 nM; half-life (oral, 4 Cogni.Q vegicaps, subject S10 (185 lb), read-out: Terminal t1/2, h (converted)): 8.8 h; Tmax (oral, 4 Cogni.Q vegicaps, subject S10 (185 lb), read-out: Tmax): 2 h; AUC(0-t) (oral, 4 Cogni.Q vegicaps, subject S11 (178 lb), read-out: AUC0-48h): 37300 nmol·h/L; Cmax (oral, 4 Cogni.Q vegicaps, subject S11 (178 lb), read-out: Cmax): 3420 nM; half-life (oral, 4 Cogni.Q vegicaps, subject S11 (178 lb), read-out: Terminal t1/2, h (converted)): 5 h; Tmax (oral, 4 Cogni.Q vegicaps, subject S11 (178 lb), read-out: Tmax): 2 h; AUC(0-t) (oral, 4 Cogni.Q vegicaps, subject S12 (169 lb), read-out: AUC0-48h): 29100 nmol·h/L; Cmax (oral, 4 Cogni.Q vegicaps, subject S12 (169 lb), read-out: Cmax): 2590 nM; half-life (oral, 4 Cogni.Q vegicaps, subject S12 (169 lb), read-out: Terminal t1/2, h (converted)): 7.9 h; Tmax (oral, 4 Cogni.Q vegicaps, subject S12 (169 lb), read-out: Tmax): 4 h; AUC(0-t) (oral, 4 Cogni.Q vegicaps, subject S13 (192 lb), read-out: AUC0-48h): 26100 nmol·h/L; Cmax (oral, 4 Cogni.Q vegicaps, subject S13 (192 lb), read-out: Cmax): 2420 nM; half-life (oral, 4 Cogni.Q vegicaps, subject S13 (192 lb), read-out: Terminal t1/2, h (converted)): 6 h; Tmax (oral, 4 Cogni.Q vegicaps, subject S13 (192 lb), read-out: Tmax): 2 h; AUC(0-t) (oral, 4 Cogni.Q vegicaps, subject S14 (200 lb), read-out: AUC0-48h): 25700 nmol·h/L; Cmax (oral, 4 Cogni.Q vegicaps, subject S14 (200 lb), read-out: Cmax): 3340 nM; half-life (oral, 4 Cogni.Q vegicaps, subject S14 (200 lb), read-out: Terminal t1/2, h (converted)): 5.3 h; Tmax (oral, 4 Cogni.Q vegicaps, subject S14 (200 lb), read-out: Tmax): 2 h; AUC(0-t) (oral, 4 Cogni.Q vegicaps, subject S15 (177 lb), read-out: AUC0-48h): 26100 nmol·h/L; Cmax (oral, 4 Cogni.Q vegicaps, subject S15 (177 lb), read-out: Cmax): 4020 nM; half-life (oral, 4 Cogni.Q vegicaps, subject S15 (177 lb), read-out: Terminal t1/2, h (converted)): 4.5 h; Tmax (oral, 4 Cogni.Q vegicaps, subject S15 (177 lb), read-out: Tmax): 1 h; Tmax (oral, 4 Cogni.Q vegicaps, subject S16 (175 lb), read-out: Tmax): 2 h; AUC(0-t) (oral, 4 Cogni.Q vegicaps, subject S17 (147 lb), read-out: AUC0-48h): 46700 nmol·h/L; Cmax (oral, 4 Cogni.Q vegicaps, subject S17 (147 lb), read-out: Cmax): 3740 nM; half-life (oral, 4 Cogni.Q vegicaps, subject S17 (147 lb), read-out: Terminal t1/2, h (converted)): 10.2 h; Tmax (oral, 4 Cogni.Q vegicaps, subject S17 (147 lb), read-out: Tmax): 2 h; half-life (oral, 4 Cogni.Q vegicaps, subject S18 (180 lb), outlier, excluded from means, read-out: Terminal t1/2, h (converted)): 16 h; AUC(0-t) (oral, 4 Cogni.Q vegicaps, subject S18 (180 lb), read-out: AUC0-48h): 16500 nmol·h/L; Cmax (oral, 4 Cogni.Q vegicaps, subject S18 (180 lb), read-out: Cmax): 1160 nM; Tmax (oral, 4 Cogni.Q vegicaps, subject S18 (180 lb), read-out: Tmax): 3 h; AUC(0-t) (oral, 4 Cogni.Q vegicaps, subject S19 (130 lb), read-out: AUC0-48h): 21400 nmol·h/L; Cmax (oral, 4 Cogni.Q vegicaps, subject S19 (130 lb), read-out: Cmax): 2270 nM; half-life (oral, 4 Cogni.Q vegicaps, subject S19 (130 lb), read-out: Terminal t1/2, h (converted)): 6.6 h; Tmax (oral, 4 Cogni.Q vegicaps, subject S19 (130 lb), read-out: Tmax): 6 h; half-life (oral, subject S16 (175 lb), outlier, excluded from means, read-out: Terminal t1/2, h (converted)): 15 h; AUC(0-t) (oral, subject S16 (175 lb), read-out: AUC0-48h): 16300 nmol·h/L; Cmax (oral, subject S16 (175 lb), read-out: Cmax): 1800 nM; AUC(0-t) (oral, subject S20 (200 lb), read-out: AUC0-48h): 17900 nmol·h/L; Cmax (oral, subject S20 (200 lb), read-out: Cmax): 1330 nM; half-life (oral, subject S20 (200 lb), read-out: Terminal t1/2, h (converted)): 9.6 h; Tmax (oral, subject S20 (200 lb), read-out: Tmax): 2 h; AUC(0-t) (male, oral, 4 Cogni.Q vegicaps, Men n=10 (S1 Table), read-out: AUC0-48h, Mean): 22500 nmol·h/L; Cmax (male, oral, 4 Cogni.Q vegicaps, Men n=10 (S1 Table), read-out: Cmax, nM, Mean): 2350 nM; Tmax (male, oral, 4 Cogni.Q vegicaps, Men n=10 (S1 Table), read-out: Tmax, h, Mean): 2.4 h; half-life (male, oral, Men, outliers excluded (S1 Table), read-out: Terminal t1/2, h, Mean (converted)): 6.6 h; AUC(0-t) (male, po, Men N = 10, single oral dose Cogni.Q, read-out: AUC0–48h, h.nmol/L Mean (SD)): 22500 nmol·h/L; Cmax (male, po, Men N = 10, single oral dose Cogni.Q, read-out: Cmax, nmol/L, Mean (SD)): 2350 nM; Tmax (male, po, Men N = 10, single oral dose Cogni.Q, read-out: Tmax, h, Mean (SD)): 2.4 h; half-life (male, po, Men, outlier subjects excluded, single oral dose Cogni.Q, read-out: T1/2, h, terminal Mean (SD) (converted)): 6.6 h
